Data: publication PMC4965013, “Open Source Drug Discovery with the Malaria Box Compound Collection for Neglected Diseases and Beyond” (PLoS Pathogens, 2016)

Assays:
[1] = tested on: P. falciparum 3D7 trophozoites; assay: Metabolomic fingerprint profiling LC-MS; type: cell-based, Plasmodium falciparum; design: UDP-D-glucose / ADP-D-glucose: unit not given here
P. falciparum = assay: EC50 listed in S2 Table Metabolomics (used to set the concentration tested); type: cell-based; conditions: Plasmodium falciparum; EC50 used for Factor_XEC50 in metabolomics; read-out: EC50_nM
[2] = metabolite level change after treatment

CCCCCCOC(=O)C1=C(C)NC(=O)NC1c1ccccc1F (centres unmarked) [MMV007686]
Acetyllysine ([1]; S2 Table Metabolomics, metabolite Acetyllysine): -0.6021 | N-acetyl-L-ornithine ([1]; S2 Table Metabolomics, metabolite N-acetyl-L-ornithine): -0.5247 | N-carbamoyl-L-aspartate ([1]; S2 Table Metabolomics, metabolite N-carbamoyl-L-aspartate): -0.1545 | NADPH ([1]; S2 Table Metabolomics, metabolite NADPH): -0.6448 | dAMP ([1]; S2 Table Metabolomics, metabolite dAMP): -0.475 | dCMP ([1]; S2 Table Metabolomics, metabolite dCMP): 0.2166 | dTDP ([1]; S2 Table Metabolomics, metabolite dTDP): -0.8182 | dTMP ([1]; S2 Table Metabolomics, metabolite dTMP): -0.71 | dTTP ([1]; S2 Table Metabolomics, metabolite dTTP): -0.2978 | dihydroorotate ([1]; S2 Table Metabolomics, metabolite dihydroorotate): 0.04156 | orotate ([1]; S2 Table Metabolomics, metabolite orotate): 0.1913 | DLH ([1]; S2 Table Metabolomics, peptide DLH): 0.3631 | DLS/SDL/SID ([1]; S2 Table Metabolomics, peptide DLS/SDL/SID): 0.06173 | PD ([1]; S2 Table Metabolomics, peptide PD): -0.2456 | PEE ([1]; S2 Table Metabolomics, peptide PEE): -0.1279 | PVNF ([1]; S2 Table Metabolomics, peptide PVNF): 0.4591 | 3-phosphoglycerate ([1]; metabolite 3-phosphoglycerate, S2 Table Metabolomics): 0.4561 | ADP-D-glucose ([1]; metabolite ADP-D-glucose, S2 Table Metabolomics): 0.08489 | ATP ([1]; metabolite ATP, S2 Table Metabolomics): -0.09097 | CDP ([1]; metabolite CDP, S2 Table Metabolomics, change in metabolite level after compound treatment): -1.124 | D-sedoheptulose-1/7-phosphate ([1]; metabolite D-sedoheptulose-1/7-phosphate, S2 Table Metabolomics, change in metabolite level after compound treatment): -0.6707 | FAD ([1]; metabolite FAD, S2 Table Metabolomics): -0.2456 | GMP ([1]; metabolite GMP, S2 Table Metabolomics, change in metabolite level after compound treatment): 0.9608 | NAD+ ([1]; metabolite NAD+, S2 Table Metabolomics): -0.04958 | NADP+ ([1]; metabolite NADP+, S2 Table Metabolomics): -0.001559 | Octoluse Bisphosphate ([1]; metabolite Octoluse Bisphosphate, S2 Table Metabolomics, change in metabolite level after compound treatment): -0.1324 | Pyroglutamic acid ([1]; metabolite Pyroglutamic acid, S2 Table Metabolomics): 0.9271 | UDP-D-glucose ([1]; metabolite UDP-D-glucose, S2 Table Metabolomics): -0.1029 | UDP-D-glucuronate ([1]; metabolite UDP-D-glucuronate, S2 Table Metabolomics): -0.1902 | UDP-N-acetyl-glucosamine ([1]; metabolite UDP-N-acetyl-glucosamine, S2 Table Metabolomics): -0.1743 | UDP ([1]; metabolite UDP, S2 Table Metabolomics, change in metabolite level after compound treatment): -1.121 | UMP ([1]; metabolite UMP, S2 Table Metabolomics, change in metabolite level after compound treatment): 0.7368 | UTP ([1]; metabolite UTP, S2 Table Metabolomics, change in metabolite level after compound treatment): -0.5193 | a-ketoglutarate ([1]; metabolite a-ketoglutarate, S2 Table Metabolomics): 0.8749 | citrate/isocitrate ([1]; metabolite citrate/isocitrate, S2 Table Metabolomics, change in metabolite level after compound treatment): 0.6672 | cytidine ([1]; metabolite cytidine, S2 Table Metabolomics): 0.271 | dATP ([1]; metabolite dATP, S2 Table Metabolomics): -0.2157 | dGMP/AMP ([1]; metabolite dGMP/AMP, S2 Table Metabolomics, change in metabolite level after compound treatment): -0.5696 | fumarate ([1]; metabolite fumarate, S2 Table Metabolomics, change in metabolite level after compound treatment): 0.5304 | glucose-1/6-phosphate ([1]; metabolite glucose-1/6-phosphate, S2 Table Metabolomics, change in metabolite level after compound treatment): -0.0799 | glycerate ([1]; metabolite glycerate, S2 Table Metabolomics, change in metabolite level after compound treatment): 0.5979 | guanine ([1]; metabolite guanine, S2 Table Metabolomics, change in metabolite level after compound treatment): -0.1143 | guanosine ([1]; metabolite guanosine, S2 Table Metabolomics, change in metabolite level after compound treatment): -0.2083 | hypoxanthine ([1]; metabolite hypoxanthine, S2 Table Metabolomics): 0.8142 | indole ([1]; metabolite indole, S2 Table Metabolomics): 0.4434 | inosine ([1]; metabolite inosine, S2 Table Metabolomics, change in metabolite level after compound treatment): 0.6048 | 2_3-Diphosphoglyceric acid [1, 2]: -0.3849 | 4-phosphopantothenate [1, 2]: -0.1203 | 6-phospho-D-gluconate [1, 2]: -0.2727 | FMN [1, 2]: -0.1451 | IMP [1, 2]: -0.1074 | Pyrophosphate [1, 2]: -0.313 | Sedoheptoluse bisphosphate [1, 2]: -0.1202 | cyclic-AMP [1, 2]: -0.174 | glutathione disulfide [1, 2]: -0.2538 | lactate [1, 2]: 0.3995 | myo-inositol [1, 2]: 0.04912 | nicotinate ([1]; metabolite nicotinate, S2 Table Metabolomics): 0.5888 | ornithine ([1]; metabolite ornithine, S2 Table Metabolomics): 0.3712 | phosphoenolpyruvate ([1]; metabolite phosphoenolpyruvate, S2 Table Metabolomics): 0.6171 | pyruvate ([1]; metabolite pyruvate, S2 Table Metabolomics, change in metabolite level after compound treatment): 0.7724 | ribose-phosphate ([1]; metabolite ribose-phosphate, S2 Table Metabolomics): 0.6092 | sarcosine/alanine ([1]; metabolite sarcosine/alanine, S2 Table Metabolomics, change in metabolite level after compound treatment): 0.1752 | sn-glycerol-3-phosphate ([1]; metabolite sn-glycerol-3-phosphate, S2 Table Metabolomics): 0.5669 | succinate/methylmalonic acid ([1]; metabolite succinate/methylmalonic acid, S2 Table Metabolomics, change in metabolite level after compound treatment): 0.1316 | uridine ([1]; metabolite uridine, S2 Table Metabolomics, change in metabolite level after compound treatment): 0.4569 | xanthosine ([1]; metabolite xanthosine, S2 Table Metabolomics, change in metabolite level after compound treatment): 0.7187 | EC50 (P. falciparum): 106 nM
